The text below walks through data of ChEMBL document CHEMBL4673399, “Sigma-1 and Sigma-2 Receptor Modulators as Potential Therapeutics for Alzheimer's Disease” (ACS Med Chem Lett, 2021).

Structures are written as SMILES.

Sequence of Sigma intracellular receptor 2 (Q5BJF2 whole entry): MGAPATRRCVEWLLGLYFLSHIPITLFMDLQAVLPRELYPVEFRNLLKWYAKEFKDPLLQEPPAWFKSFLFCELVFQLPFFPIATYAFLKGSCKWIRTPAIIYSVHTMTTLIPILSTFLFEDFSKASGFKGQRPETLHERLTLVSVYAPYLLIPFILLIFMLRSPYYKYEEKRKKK

The first test addresses Sigma intracellular receptor 2 (Homo sapiens, UniProt Q5BJF2). Nature of the test: Binding affinity to sigma 2 receptor (unknown origin).
With `N#Cc1ccc(CCNC2CCc3nn4c(c3C2)C(=O)NCCC4)cc1` (stereo not given), the Ki is less than 1000 nM.
Still for that read-out and setting: the figure for `CN1CCn2nc3c(c2C1=O)CC(NCc1ccc(F)cc1)CC3` (stereo not given) is 1000 nM; for `O=C(c1nn(-c2ccccc2)c2c1CC(NCCc1ncc[nH]1)CC2)N1CCCCC1` (stereo not given) it is less than 1000 nM; for `CCCn1nc(C(=O)Nc2cccc(OC)c2)c2c1CCC(NCCc1ccncc1)C2` (stereo not given) it is less than 1000 nM.
Molecule `N#Cc1ccc(CCNC2CCc3c(c(C(=O)N4CCCCC4)nn3-c3ccccc3)C2)cc1` (stereo not given) gave an inhibitory constant (Ki) of less than 1000 nM.
As for `O=C(c1nn(-c2ccccc2)c2c1CC(N1CCc3ccccc3C1)CC2)N1CCCCC1` (stereo not given), the Ki was 1000 nM.
For the molecule `CCCn1nc(C(=O)N2CCCCC2)c2c1CCN(CCc1cccc(C(F)(F)F)c1)C2`, the inhibitory constant (Ki) is less than 1000 nM.
As for `O=C(c1nn(-c2ccccc2)c2c1CC(NCC1CCOCC1)CC2)N1CCCCC1` (stereo not given), the Ki is less than 1000 nM.
Same read-out and setting: the figure for `CCCn1nc(C(=O)N2CCCCC2)c2c1CCN(CCc1ccc(F)cc1)C2` is 1000 nM.
The same measure, in the same setting: then `O=C1NCCn2nc3c(c21)CC(NCCc1ccc2c(c1)OCO2)CC3` (stereo not given), with 1000 nM.

The target of a further test is Sigma non-opioid intracellular receptor 1 (Homo sapiens, UniProt Q99720). Nature of the test: Binding affinity to sigma 1 receptor (unknown origin).
Sequence of Sigma non-opioid intracellular receptor 1 (Q99720 whole entry): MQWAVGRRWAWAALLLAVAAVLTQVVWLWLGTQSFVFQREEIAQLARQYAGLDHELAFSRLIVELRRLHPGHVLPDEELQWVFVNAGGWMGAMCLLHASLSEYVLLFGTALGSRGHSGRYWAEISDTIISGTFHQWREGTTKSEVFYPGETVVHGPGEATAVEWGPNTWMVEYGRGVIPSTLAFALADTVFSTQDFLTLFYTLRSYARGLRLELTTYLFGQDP
The molecule `N#Cc1ccc(CCNC2CCc3nn4c(c3C2)C(=O)NCCC4)cc1` (stereo not given) returned a Ki of 1000 nM.
For `CN1CCn2nc3c(c2C1=O)CC(NCc1ccc(F)cc1)CC3` (stereo not given), the affinity, expressed as Ki, was 1000 nM.
For the molecule `O=C(c1nn(-c2ccccc2)c2c1CC(NCCc1ncc[nH]1)CC2)N1CCCCC1` (stereo not given), the affinity corresponds to a Ki of 1000 nM.
In turn, `CCCn1nc(C(=O)Nc2cccc(OC)c2)c2c1CCC(NCCc1ccncc1)C2` (stereo not given) gave an inhibitory constant (Ki) of 1000 nM.
On the same count and under the same terms, then `N#Cc1ccc(CCNC2CCc3c(c(C(=O)N4CCCCC4)nn3-c3ccccc3)C2)cc1` (stereo not given), with less than 1000 nM; and `O=C(c1nn(-c2ccccc2)c2c1CC(N1CCc3ccccc3C1)CC2)N1CCCCC1` (stereo not given), with 1000 nM.
In turn, `CCCn1nc(C(=O)N2CCCCC2)c2c1CCN(CCc1cccc(C(F)(F)F)c1)C2` yielded an inhibition constant (Ki) of 1000 nM.
As for `O=C(c1nn(-c2ccccc2)c2c1CC(NCC1CCOCC1)CC2)N1CCCCC1` (stereo not given), the Ki was less than 1000 nM.
Turning to `CCCn1nc(C(=O)N2CCCCC2)c2c1CCN(CCc1ccc(F)cc1)C2`, the inhibition constant Ki was less than 1000 nM.
The same measure, in the same setting: then `O=C1NCCn2nc3c(c21)CC(NCCc1ccc2c(c1)OCO2)CC3` (stereo not given), with 1000 nM.
